# Literature values in patent US7517900B2, “Pyrazole derivatives as cannabinoid receptor modulators” (Bristol-Myers Squibb Company, priority 2003, dated 2009).
# Experiments:
# [1] = chronic administration for two weeks
# [2] = test system: human subjects; details: 16 week trial period, Phase IIb
SMILES,body weight [1],body weight in human subjects [2]
Cc1c(C(=O)NN2CCCCC2)nn(-c2ccc(Cl)cc2Cl)c1-c1ccc(I)cc1 [AM-251],substantial body weight reduction,–
Cc1c(C(=O)NN2CCCCC2)nn(-c2ccc(Cl)cc2Cl)c1-c1ccc(Cl)cc1 [SR-141716],–,dose-dependently reduced body weight
